Activity calls are given as the source filed them. No cut-off for these calls is given here. Positions of bridges follow the written chain, without caps; N, C: chain ends. Non-standard residues stand in square brackets, D forms with d. Residues, ends and D or L forms follow the SMILES beside them. ξ: configuration not given here. Cit = NC(=O)NCCC[C@H](N)C(=O)O; Dap = NC[C@H](N)C(=O)O; ξDab = NCCC(N)C(=O)O; ξDap = NCC(N)C(=O)O
target: Neuronal acetylcholine receptor; alpha9/alpha10 (Homo sapiens) (UniProt Q9UGM1+Q9GZZ6); assay: Antagonist activity at human alpha9alpha10 nAChR expressed in Xenopus laevis oocytes assessed as inhibition of ACh-induced current amplitude at -80 mV holding potential at 100 nM by two-electrode voltage clamp method; type: cell-based; conditions: Oocyte

First: CC[C@H](C)[C@@H]1NC(=O)[C@H](CC(=O)O)NC(=O)[C@@H]2CCCN2C(=O)[C@H](CC(N)=O)NC(=O)[C@H](CC(N)=O)NC(=O)[C@H](CC(=O)O)NC(=O)[C@H](CO)NC(=O)[C@@H]2CSSC[C@H](NC(=O)CN)C(=O)N[C@@H](CSSC[C@@H](C(N)=O)NC1=O)C(=O)N[C@@H](CO)C(=O)N[C@@H](Cc1cnc[nH]1)C(=O)N1CCC[C@H]1C(=O)N[C@@H](C)C(=O)N2 (H-GCCSHPACSDNNPDIC-NH2; disulfide 2-8, 3-16)
Second: CC[C@H](C)[C@@H]1NC(=O)[C@H](CC(=O)O)NC(=O)[C@@H]2CCCN2C(=O)[C@H](CC(N)=O)NC(=O)[C@H](CC(N)=O)NC(=O)C(CCN)NC(=O)[C@H](CO)NC(=O)[C@@H]2CSSC[C@H](NC(=O)CN)C(=O)N[C@@H](CSSC[C@@H](C(N)=O)NC1=O)C(=O)N[C@@H](CO)C(=O)N[C@@H](Cc1cnc[nH]1)C(=O)N1CCC[C@H]1C(=O)N[C@@H](C)C(=O)N2 (stereo not given in full) (H-GCCSHPACS[ξDab]NNPDIC-NH2; disulfide 2-8, 3-16)
The inhibition of the first is lower: < 5% for the first, 35% for the second.

CC[C@H](C)[C@@H]1NC(=O)[C@H](CC(=O)O)NC(=O)[C@@H]2CCCN2C(=O)[C@H](CC(N)=O)NC(=O)[C@H](CC(N)=O)NC(=O)[C@H](CCCCN)NC(=O)[C@H](CO)NC(=O)[C@@H]2CSSC[C@H](NC(=O)CN)C(=O)N[C@@H](CSSC[C@@H](C(N)=O)NC1=O)C(=O)N[C@@H](CO)C(=O)N[C@@H](Cc1cnc[nH]1)C(=O)N1CCC[C@H]1C(=O)N[C@@H](C)C(=O)N2 (H-GCCSHPACSKNNPDIC-NH2; disulfide 2-8, 3-16) and CC[C@H](C)[C@@H]1NC(=O)[C@H](CC(=O)O)NC(=O)[C@@H]2CCCN2C(=O)[C@H](CC(N)=O)NC(=O)[C@H](CC(N)=O)NC(=O)[C@H](CCCNC(N)=O)NC(=O)[C@H](CO)NC(=O)[C@@H]2CSSC[C@H](NC(=O)CN)C(=O)N[C@@H](CSSC[C@@H](C(N)=O)NC1=O)C(=O)N[C@@H](CO)C(=O)N[C@@H](Cc1cnc[nH]1)C(=O)N1CCC[C@H]1C(=O)N[C@@H](C)C(=O)N2 (H-GCCSHPACS[Cit]NNPDIC-NH2; disulfide 2-8, 3-16) cannot be ordered by inhibition: < 5% for the first, < 5% for the second.

CC[C@H](C)[C@@H]1NC(=O)[C@H](CC(=O)O)NC(=O)[C@@H]2CCCN2C(=O)[C@H](CC(N)=O)NC(=O)[C@H](CC(N)=O)NC(=O)[C@H](C(C)C)NC(=O)[C@H](CO)NC(=O)[C@@H]2CSSC[C@H](NC(=O)CN)C(=O)N[C@@H](CSSC[C@@H](C(=O)N[C@@H](CC(C)C)C(N)=O)NC1=O)C(=O)N[C@@H](CO)C(=O)N[C@@H](Cc1cnc[nH]1)C(=O)N1CCC[C@H]1C(=O)N[C@@H](C)C(=O)N2 (H-GCCSHPACSVNNPDICL-NH2; disulfide 2-8, 3-16) and CC[C@H](C)[C@@H]1NC(=O)[C@H](CC(=O)O)NC(=O)[C@@H]2CCCN2C(=O)[C@H](CC(N)=O)NC(=O)[C@H](CC(N)=O)NC(=O)[C@H](C(C)C)NC(=O)[C@H](CO)NC(=O)[C@@H]2CSSC[C@H](NC(=O)CN)C(=O)N[C@@H](CSSC[C@@H](C(=O)N[C@@H](Cc3ccc(O)cc3)C(N)=O)NC1=O)C(=O)N[C@@H](CO)C(=O)N[C@@H](Cc1cnc[nH]1)C(=O)N1CCC[C@H]1C(=O)N[C@@H](C)C(=O)N2 (H-GCCSHPACSVNNPDICY-NH2; disulfide 2-8, 3-16) are the same in inhibition: 15% for the first, 15% for the second.

Compared with CC[C@H](C)[C@@H]1NC(=O)[C@H](CC(=O)O)NC(=O)[C@@H]2CCCN2C(=O)[C@H](CC(N)=O)NC(=O)[C@H](CC(N)=O)NC(=O)[C@H](C(C)C)NC(=O)[C@H](Cc2ccc(O)cc2)NC(=O)[C@@H]2CSSC[C@H](NC(=O)CN)C(=O)N[C@@H](CSSC[C@@H](C(N)=O)NC1=O)C(=O)N[C@@H](CO)C(=O)N[C@@H](Cc1cnc[nH]1)C(=O)N1CCC[C@H]1C(=O)N[C@@H](C)C(=O)N2 (H-GCCSHPACYVNNPDIC-NH2; disulfide 2-8, 3-16), CC[C@H](C)[C@@H]1NC(=O)[C@H](CC(=O)O)NC(=O)[C@@H]2CCCN2C(=O)[C@H](CC(N)=O)NC(=O)[C@H](CC(N)=O)NC(=O)[C@H](C(C)C)NC(=O)C(CCN)NC(=O)[C@@H]2CSSC[C@H](NC(=O)CN)C(=O)N[C@@H](CSSC[C@@H](C(N)=O)NC1=O)C(=O)N[C@@H](CO)C(=O)N[C@@H](Cc1cnc[nH]1)C(=O)N1CCC[C@H]1C(=O)N[C@@H](C)C(=O)N2 (stereo not given in full) (H-GCCSHPAC[ξDab]VNNPDIC-NH2; disulfide 2-8, 3-16) is higher in inhibition: 5% for the first, 15% for the second.

CC[C@H](C)[C@@H]1NC(=O)[C@H](CC(=O)O)NC(=O)[C@@H]2CCCN2C(=O)[C@H](CC(N)=O)NC(=O)[C@H](CC(N)=O)NC(=O)[C@H](C(C)C)NC(=O)[C@H](CO)NC(=O)[C@@H]2CSSC[C@H](NC(=O)CN)C(=O)N[C@@H](CSSC[C@@H](C(N)=O)NC1=O)C(=O)N[C@@H](CO)C(=O)N[C@@H](CCCNC(=N)N)C(=O)N1CCC[C@H]1C(=O)N[C@@H](C)C(=O)N2 (H-GCCSRPACSVNNPDIC-NH2; disulfide 2-8, 3-16) and CC[C@H](C)[C@@H]1NC(=O)[C@H](CC(=O)O)NC(=O)[C@@H]2CCCN2C(=O)[C@H](CC(N)=O)NC(=O)[C@H](CC(N)=O)NC(=O)[C@H](C(C)C)NC(=O)[C@H](CO)NC(=O)[C@@H]2CSSC[C@H](NC(=O)CN)C(=O)N[C@@H](CSSC[C@@H](C(N)=O)NC1=O)C(=O)N[C@@H]([C@@H](C)O)C(=O)N[C@@H](Cc1cnc[nH]1)C(=O)N1CCC[C@H]1C(=O)N[C@@H](C)C(=O)N2 (H-GCCTHPACSVNNPDIC-NH2; disulfide 2-8, 3-16) are the same in inhibition: 10% for the first, 10% for the second.

same assay, conditions: Oocyte, filed as antagonist

Going from CC[C@H](C)[C@@H]1NC(=O)[C@H](CC(=O)O)NC(=O)[C@@H]2CCCN2C(=O)[C@H](CC(N)=O)NC(=O)[C@H](CC(N)=O)NC(=O)[C@H](C(C)C)NC(=O)[C@H](CO)NC(=O)[C@@H]2CSSC[C@H](NC(=O)CN)C(=O)N[C@@H](CSSC[C@@H](C(N)=O)NC1=O)C(=O)N[C@@H](CCCNC(=N)N)C(=O)N[C@@H](Cc1cnc[nH]1)C(=O)N1CCC[C@H]1C(=O)N[C@@H](C)C(=O)N2 (H-GCCRHPACSVNNPDIC-NH2; disulfide 2-8, 3-16) to CC[C@H](C)[C@@H]1NC(=O)[C@H](CC(=O)O)NC(=O)[C@@H]2CCCN2C(=O)[C@H](CC(N)=O)NC(=O)[C@H](CC(N)=O)NC(=O)[C@H](CCCNC(=N)N)NC(=O)[C@H](CO)NC(=O)[C@@H]2CSSC[C@H](NC(=O)CN)C(=O)N[C@@H](CSSC[C@@H](C(N)=O)NC1=O)C(=O)N[C@@H](CO)C(=O)N[C@@H](Cc1cnc[nH]1)C(=O)N1CCC[C@H]1C(=O)N[C@@H](C)C(=O)N2 (H-GCCSHPACSRNNPDIC-NH2; disulfide 2-8, 3-16), the inhibition falls from > 85% to 60%.

First: CC[C@H](C)[C@@H]1NC(=O)[C@H](CC(=O)O)NC(=O)[C@@H]2CCCN2C(=O)[C@H](CC(N)=O)NC(=O)[C@H](CC(N)=O)NC(=O)[C@H](C(C)C)NC(=O)[C@H](CO)NC(=O)[C@@H]2CSSC[C@H](NC(=O)CN)C(=O)N[C@@H](CSSC[C@@H](C(=O)N[C@@H](CCCNC(=N)N)C(N)=O)NC1=O)C(=O)N[C@@H](CO)C(=O)N[C@@H](Cc1cnc[nH]1)C(=O)N1CCC[C@H]1C(=O)N[C@@H](C)C(=O)N2 (H-GCCSHPACSVNNPDICR-NH2; disulfide 2-8, 3-16)
Second: CC[C@H](C)[C@@H]1NC(=O)[C@H](CC(=O)O)NC(=O)[C@@H]2CCCN2C(=O)[C@H](CC(N)=O)NC(=O)[C@H](CC(N)=O)NC(=O)[C@H](C(C)C)NC(=O)C(CN)NC(=O)[C@@H]2CSSC[C@H](NC(=O)CN)C(=O)N[C@@H](CSSC[C@@H](C(N)=O)NC1=O)C(=O)N[C@@H](CO)C(=O)N[C@@H](Cc1cnc[nH]1)C(=O)N1CCC[C@H]1C(=O)N[C@@H](C)C(=O)N2 (stereo not given in full) (H-GCCSHPAC[ξDap]VNNPDIC-NH2; disulfide 2-8, 3-16)
The inhibition of the first is lower: 60% for the first, 80% for the second.

CC[C@H](C)[C@@H]1NC(=O)[C@H](CC(=O)O)NC(=O)[C@@H]2CCCN2C(=O)[C@H](CC(N)=O)NC(=O)[C@H](CC(N)=O)NC(=O)C(CN)NC(=O)[C@H](CO)NC(=O)[C@@H]2CSSC[C@H](NC(=O)CN)C(=O)N[C@@H](CSSC[C@@H](C(N)=O)NC1=O)C(=O)N[C@@H](CO)C(=O)N[C@@H](Cc1cnc[nH]1)C(=O)N1CCC[C@H]1C(=O)N[C@@H](C)C(=O)N2 (stereo not given in full) (H-GCCSHPACS[ξDap]NNPDIC-NH2; disulfide 2-8, 3-16) and CC[C@H](C)[C@@H]1NC(=O)[C@H](CC(=O)O)NC(=O)[C@@H]2CCCN2C(=O)[C@H](CC(N)=O)NC(=O)[C@H](CC(N)=O)NC(=O)C(CN)NC(=O)[C@H](CO)NC(=O)[C@@H]2CSSC[C@H](NC(=O)CN)C(=O)N[C@@H](CSSC[C@@H](C(N)=O)NC1=O)C(=O)NC(CN)C(=O)N[C@@H](Cc1cnc[nH]1)C(=O)N1CCC[C@H]1C(=O)N[C@@H](C)C(=O)N2 (stereo not given in full) (H-GCC[ξDap]HPACS[ξDap]NNPDIC-NH2; disulfide 2-8, 3-16) cannot be ordered by inhibition: > 90% for the first, > 95% for the second.

CC[C@H](C)[C@@H]1NC(=O)[C@H](CC(=O)O)NC(=O)[C@@H]2CCCN2C(=O)[C@H](CC(N)=O)NC(=O)[C@H](CC(N)=O)NC(=O)[C@H](C(C)C)NC(=O)[C@H](CO)NC(=O)[C@@H]2CSSC[C@H](NC(=O)CN)C(=O)N[C@@H](CSSC[C@@H](C(N)=O)NC1=O)C(=O)NC(CCN)C(=O)N[C@@H](Cc1cnc[nH]1)C(=O)N1CCC[C@H]1C(=O)N[C@@H](C)C(=O)N2 (stereo not given in full) (H-GCC[ξDab]HPACSVNNPDIC-NH2; disulfide 2-8, 3-16) was tested, and the inhibition was > 85%.

For CC[C@H](C)[C@@H]1NC(=O)[C@H](CC(=O)O)NC(=O)[C@@H]2CCCN2C(=O)[C@H](CC(N)=O)NC(=O)[C@H](CC(N)=O)NC(=O)[C@H](CN)NC(=O)[C@H](CO)NC(=O)[C@@H]2CSSC[C@H](NC(=O)CN)C(=O)N[C@@H](CSSC[C@@H](C(N)=O)NC1=O)C(=O)N[C@@H](CO)C(=O)N[C@@H](Cc1c[nH]cn1)C(=O)N1CCC[C@H]1C(=O)N[C@@H](C)C(=O)N2 (H-GCCSHPACS[Dap]NNPDIC-NH2; disulfide 2-8, 3-16), the inhibition was “Active”.
For CC[C@H](C)[C@@H]1NC(=O)[C@H](CC(=O)O)NC(=O)[C@@H]2CCCN2C(=O)[C@H](CC(N)=O)NC(=O)[C@H](CC(N)=O)NC(=O)C(CCN)NC(=O)[C@H](CO)NC(=O)[C@@H]2CSSC[C@H](NC(=O)CN)C(=O)N[C@@H](CSSC[C@@H](C(N)=O)NC1=O)C(=O)N[C@@H](CO)C(=O)N[C@@H](Cc1cnc[nH]1)C(=O)N1CCC[C@H]1C(=O)N[C@@H](C)C(=O)N2 (stereo not given in full) (H-GCCSHPACS[ξDab]NNPDIC-NH2; disulfide 2-8, 3-16), the inhibition was “Active”.
In the case of CC[C@H](C)[C@@H]1NC(=O)[C@H](CC(=O)O)NC(=O)[C@@H]2CCCN2C(=O)[C@H](CC(N)=O)NC(=O)[C@H](CC(N)=O)NC(=O)[C@H](C(C)C)NC(=O)[C@H](CN)NC(=O)[C@@H]2CSSC[C@H](NC(=O)CN)C(=O)N[C@@H](CSSC[C@@H](C(N)=O)NC1=O)C(=O)N[C@@H](CO)C(=O)N[C@@H](Cc1c[nH]cn1)C(=O)N1CCC[C@H]1C(=O)N[C@@H](C)C(=O)N2 (H-GCCSHPAC[Dap]VNNPDIC-NH2; disulfide 2-8, 3-16), the inhibition is reported as “Active”.

Reference: ChEMBL document CHEMBL5150017, “Mechanism of Action and Structure-Activity Relationship of α-Conotoxin Mr1.1 at the Human α9α10 Nicotinic Acetylcholine Receptor” (J Med Chem, 2022)
